Values quoted from earlier work in the PKSmart pharmacokinetics tables (Seal et al. 2025).
*1 amine or outer side, *2 acyl side, *3 side chain or, on linkers, in order; H or OH if unused. Where a SMILES comes first, the peptide text is derived from it. Bridges are numbered along the chain shown (N, C = ends). [ ]: non-standard residue; d: D form. The star is where a group is joined. ξ: configuration not given here. X1 = O=C1CC(C(=O)[*:2])N([*:1])CC1CS[C@@H]1CN2CCC1CC2; ξThr(3R)(O-yl) = C[C@@H](O[*:3])C(N[*:1])C(=O)[*:2]; ξNMePhe(4-NMe2) = CNC(Cc1ccc(N(C)C)cc1)C(=O)O; Picolinoyl(3-OH) = O=C(c1ncccc1O)*; ξPhg = NC(C(=O)O)c1ccccc1; ξAbu = CCC(N)C(=O)O; ξP = O=C(O)C1CCCN1

Experiment: Lombardo, Berellini, Obach 2018, Drug Metab Dispos 46:1466, doi 10.1124/dmd.118.082966
Conditions: human; for MRT / Vd / clearance / half-life: in vivo, iv; for fraction unbound: plasma

Row | SMILES | MRT | Vd | clearance | half-life | fraction unbound
1 | C[C@@H](O)C1C(=O)N2C(C(=O)[O-])=C(S[C@H]3CC[S@@+](O)C3)S[C@@H]12 (some centres undefined) | 0.7 h | 0.21 L/kg | 5.1 mL/min/kg | 0.9 h | 0.9
2 | C[C@@H]1[C@H](O)[C@@H](C)C=CC=CC=CC=CC=CC=CC=C[C@H](O[C@H]2O[C@H](C)[C@@H](O)[C@H](N)[C@@H]2O)C[C@@H]2O[C@@](O)(C[C@@H](O)C[C@@H](O)[C@H](O)CC[C@@H](O)C[C@@H](O)CC(=O)O[C@H]1C)C[C@H](O)C2C(=O)O (some centres undefined) | 61 h | 0.62 L/kg | 0.17 mL/min/kg | 40 h | 0.03
3 | CC1(C)O[C@@H]2C[C@H]3[C@@H]4C[C@H](F)C5=CC(=O)C=C[C@@]5(C)[C@H]4[C@@H](O)C[C@]3(C)[C@]2(C(=O)CO)O1 | 1.89 h | 1.08 L/kg | 9.5 mL/min/kg | 1.68 h | –
4 | NCCCCC(NC1CCc2ccccc2N(CC(=O)O)C1=O)C(=O)O (centres undefined) | 29.3 h | 1.98 L/kg | 1.23 mL/min/kg | – | –
5 | Cc1ccc(O)c([C@H](CCN(C(C)C)C(C)C)c2ccccc2)c1 | 3 h | 1.5 L/kg | 8.4 mL/min/kg | 2.4 h | –
6 | Clc1cccc(Cl)c1NC1=NCCN1 | 14 h | 3.3 L/kg | 4 mL/min/kg | 7.6 h | 0.56
7 | c1ccc(CN(CC2=NCCN2)c2ccccc2)cc1 | 3.45 h | 3.9 L/kg | 19.7 mL/min/kg | 2.29 h | –
8 | CCN[C@@H](C)Cc1cccc(C(F)(F)F)c1 | 18 h | 11 L/kg | 11 mL/min/kg | 14 h | 0.66
9 | CC(S)C(=O)NCC(=O)O (centres undefined) | 15.7 h | 1.39 L/kg | 1.48 mL/min/kg | 55 h | 0.45
10 | C=C[C@]1(C)C[C@@H](OC(=O)CS[C@@H]2CC[C@@H](N)C[C@H]2O)[C@]2(C)[C@H](C)CC[C@]3(CCC(=O)[C@H]32)[C@@H](C)[C@@H]1O | 5.53 h | 1.32 L/kg | 3.96 mL/min/kg | 6.4 h | 0.17
11 | CC(C)(C)c1nc(-c2cccc(NS(=O)(=O)c3c(F)cccc3F)c2F)c(-c2ccnc(N)n2)s1 | 3.8 h | 0.65 L/kg | 2.86 mL/min/kg | 2.6 h | 0.003
12 | CCC1=NC(=O)C2CSSCC/C=C/[C@H](CC(=O)NC(C(C)C)C(=O)N2)OC(=O)C(C(C)C)NC1=O (some centres undefined) | 2.6 h | – | 7.4 mL/min/kg | 11 h | 0.07
13 | Nc1nc2ccc(OC(F)(F)F)cc2s1 | 5.2 h | 3.5 L/kg | 11.3 mL/min/kg | – | 0.04
14 | CC[C@@]1(O)C(=O)OCc2c1cc1n(c2=O)Cc2cc3cc(O)ccc3nc2-1 | 1.63 h | 0.22 L/kg | 2.23 mL/min/kg | 1.67 h | –
15 | COC(=O)C1=C(C)NC(C)=C(C(=O)OC(C)C)C1c1cccc2nonc12 (centres undefined) | 1 h | 1.5 L/kg | 26 mL/min/kg | 3.3 h | 0.04
16 | Cc1nc2n(c(=O)c1CCN1CCC(c3noc4cc(F)ccc34)CC1)CCCC2O (centres undefined) | – | – | 1.18 mL/min/kg | 24.6 h | 0.24
17 | COc1c(OCCCN2CCOCC2)ccc2c1N=C(NC(=O)c1cnc(N)nc1)N1CCN=C21 | 26.8 h | 10.3 L/kg | 6.42 mL/min/kg | 25.2 h | –
18 | CN1[C@@H]2CCC[C@H]1C[C@@H](NC(=O)c1nn(C)c3ccccc13)C2 | 6.7 h | 3.7 L/kg | 9.1 mL/min/kg | 5.2 h | –
19 | CCCC(=O)Nc1ccc(OCC(O)CNC(C)C)c(C(C)=O)c1 (centres undefined) | 2.8 h | 1.7 L/kg | – | 3.5 h | –
20 | C[C@H](CN1CCOCC1)C(C(=O)N1CCCC1)(c1ccccc1)c1ccccc1 | 3.88 h | 0.47 L/kg | 2.19 mL/min/kg | 3.18 h | –
21 | O=C(NC[C@H]1CN(c2ccc(N3CCOCC3=O)cc2)C(=O)O1)c1ccc(Cl)s1 | 4.9 h | 0.7 L/kg | 2.4 mL/min/kg | 7 h | 0.06
22 | NS(=O)(=O)c1cc(C(=O)O)cc(N2CCCC2)c1Oc1ccccc1 | 0.91 h | 0.17 L/kg | 3.1 mL/min/kg | 1.3 h | 0.058
23 | CCC1NC(=O)C(NC(=O)c2ncccc2O)[C@@H](C)OC(=O)C(c2ccccc2)NC(=O)C2CC(=O)C(CS[C@@H]3CN4CCC3CC4)CN2C(=O)C(Cc2ccc(N(C)C)cc2)N(C)C(=O)C2CCCN2C1=O (stereo partly drawn) ({Picolinoyl(3-OH)}-[ξThr(3R)(O-yl)][ξAbu][ξP][ξNMePhe(4-NMe2)][X1][ξPhg]; ester 1-C) | 0.7 h | 0.67 L/kg | 16 mL/min/kg | 0.87 h | 0.34
24 | CC(C)(C)c1[nH]cnc1/C=c1\[nH]c(=O)/c(=C/c2ccccc2)[nH]c1=O | 6.7 h | 3 L/kg | 7.4 mL/min/kg | 6.3 h | –
25 | CCN1CCC[C@H]1CNC(=O)c1c(O)c(Cl)cc(Cl)c1OC | 15.3 h | 1.1 L/kg | 1.2 mL/min/kg | 14 h | 0.06

Row | SMILES | MRT | Vd | clearance | half-life | fraction unbound
26 | COc1ccc(CC(C)(C)NC[C@H](O)c2cc(O)cc3c2OCC(=O)N3)cc1 | 22.2 h | 15.8 L/kg | 12.4 mL/min/kg | 22.1 h | 0.4
27 | Nc1nc(C(=NO)C(=O)NC2C(=O)N3C(C(=O)O)=C(C=C4CCN([C@@H]5CCNC5)C4=O)CS[C@H]23)ns1 (some centres undefined) | 3 h | 0.27 L/kg | 1.5 mL/min/kg | 3.3 h | 0.62
28 | CN/C(=N\CCSCc1nc[nH]c1C)NC#N | 2.5 h | 1.2 L/kg | 8.1 mL/min/kg | 2.2 h | –
29 | COc1cc2c(cc1OC)CN(CCc1ccc(NC(=O)c3cc(OC)c(OC)cc3NC(=O)c3cnc4ccccc4c3)cc1)CC2 | 38 h | 6.4 L/kg | 2.8 mL/min/kg | 29 h | –
30 | O=C1NC(=O)C(c2ccccc2)(c2ccccc2)N1 | 17.6 h | 0.43 L/kg | 0.37 mL/min/kg | 16.8 h | 0.13
31 | CN(C)c1cc(NC(=O)CNC(C)(C)C)c(O)c2c1C[C@H]1C[C@H]3[C@H](N(C)C)C(O)=C(C(N)=O)C(=O)[C@@]3(O)C(O)=C1C2=O | 53 h | 12 L/kg | 3.8 mL/min/kg | 48 h | 0.2
32 | CC(C(=O)O)c1ccc(C(=O)c2ccccc2)s1 (centres undefined) | 2.3 h | 0.08 L/kg | 0.62 mL/min/kg | 2.1 h | 0.015
33 | CCN1CC(CCN2CCOCC2)C(c2ccccc2)(c2ccccc2)C1=O (centres undefined) | 3.7 h | 1.2 L/kg | 5.3 mL/min/kg | 4.1 h | –
34 | CCCC(C)C1(CC)C(=O)NC(=S)NC1=O (centres undefined) | 2.4 h | 1.2 L/kg | 8.2 mL/min/kg | 2 h | 0.14
35 | COc1cc2c(cc1O)CCN[C@]21CS[C@@H]2c3c(OC(C)=O)c(C)c4c(c3[C@H](COC1=O)N1[C@@H]2[C@H]2c3c(cc(C)c(OC)c3O)C[C@@H]([C@@H]1O)N2C)OCO4 | 35 h | 25 L/kg | 12 mL/min/kg | 44 h | 0.06
36 | NS(=O)(=O)OC[C@@H]1C[C@@H](n2ccc3c(N[C@H]4CCc5ccccc54)ncnc32)C[C@@H]1O | 6.21 h | 3.02 L/kg | 8.1 mL/min/kg | 5.62 h | –
37 | CC(C)(C(=O)O)c1ccc(C(=O)CCCN2CCC(OC(c3ccccc3)c3ccccc3)CC2)cc1 | 16.7 h | 0.41 L/kg | 0.4 mL/min/kg | 9.8 h | 0.05
38 | O=C(O)c1ccc(-n2nc(-c3ccccc3O)nc2-c2ccccc2O)cc1 | 4.07 h | 0.2 L/kg | 0.84 mL/min/kg | 4.05 h | 0.004
39 | N#Cc1ccc2[nH]cc(CCCCN3CCN(c4ccc5oc(C(N)=O)cc5c4)CC3)c2c1 | 21.5 h | 4.85 L/kg | 3.76 mL/min/kg | 15.7 h | 0.03
40 | Cc1c(C)c2ccc(OCCCN3CCN(Cc4ccc(Cl)cc4)CC3)cc2oc1=O | 16.5 h | 1.3 L/kg | 1.3 mL/min/kg | 19.2 h | 0.05
41 | CCCCCCCCc1ccc(CCC(N)(CO)CO)cc1 | 189 h | 17.3 L/kg | 1.53 mL/min/kg | 144 h | 0.002
42 | Oc1cc2cc(CCN3CCN(c4nsc5ccccc45)CC3)c(Cl)cc2[nH]1 | 3.3 h | 1 L/kg | 5.1 mL/min/kg | 3.1 h | –
43 | CC1CNc2c(cccc2S(=O)(=O)NC(CCCNC(=N)N)C(=O)N2CC[C@@H](C)CC2C(=O)O)C1 (some centres undefined) | 0.57 h | 0.17 L/kg | 5 mL/min/kg | 0.4 h | 0.46
44 | Cc1ncc([N+](=O)[O-])n1CC(O)CN1CCOCC1 (centres undefined) | 7.9 h | 0.75 L/kg | 1.6 mL/min/kg | 6.2 h | –
45 | NC(CCC(=O)NC(CS(=O)(=O)CCOP(=O)(N(CCCl)CCCl)N(CCCl)CCCl)C(=O)NC(C(=O)O)c1ccccc1)C(=O)O (centres undefined) | 0.27 h | 0.46 L/kg | 28.5 mL/min/kg | 0.28 h | –
46 | CN(c1nc2ccccc2s1)C1CCN(C[C@@H](O)COc2ccc(F)cc2)CC1 | 22.6 h | 5.5 L/kg | 4.05 mL/min/kg | 18.9 h | 0.014
47 | Nc1c2c(nc3ccccc13)CCCC2 | 3.3 h | 11 L/kg | 56 mL/min/kg | 3.3 h | 0.25
48 | Cc1cc(-n2cccc2)c(S(C)(=O)=O)cc1C(=O)NC(=N)N | 2.3 h | 1.1 L/kg | 8.2 mL/min/kg | 2.2 h | –
49 | Cc1c(F)cc(C(=O)NC2CC2)cc1-c1ccc(C(=O)NCC(C)(C)C)cn1 | 7.38 h | 1.67 L/kg | – | 6.95 h | –
